In paper PMC2572998, “Structures of the Signal Recognition Particle Receptor from the Archaeon Pyrococcus furiosus: Implications for the Targeting Step at the Membrane” (PLoS ONE, 2008):

Target: T1, Pfu-FtsY (Pyrococcus furiosus, UniProt Q8U051)
T1 construct: full-length; N-terminal hexahistidine tag (pET28b, thrombin-cleavable) removed; expressed in E. coli BL21(DE3)-rosetta2; calculated mass 35,810 Da; monomer
T1 sequence (Q8U051 1-322): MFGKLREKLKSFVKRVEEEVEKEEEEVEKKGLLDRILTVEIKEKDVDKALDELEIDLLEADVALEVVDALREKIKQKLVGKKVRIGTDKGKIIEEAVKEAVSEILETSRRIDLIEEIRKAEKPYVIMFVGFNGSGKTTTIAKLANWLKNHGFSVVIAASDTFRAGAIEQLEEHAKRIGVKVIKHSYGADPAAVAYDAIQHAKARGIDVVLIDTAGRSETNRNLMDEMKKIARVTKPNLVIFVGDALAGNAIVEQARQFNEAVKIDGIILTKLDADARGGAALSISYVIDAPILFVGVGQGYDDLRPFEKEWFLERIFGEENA
Test: X-ray crystal structure, […] Å
Assay type: binding
Details: Mg2+; co-crystallised with 10 mM GTP (hydrolysed to GDP), pH 8.0; catalytic site at full occupancy; additional external GDP at crystal contact near insertion box domain (second site, 69% occupancy)

Nc1nc2c(ncn2[C@@H]2O[C@H](COP(=O)(O)OP(=O)(O)O)[C@@H](O)[C@H]2O)c(=O)[nH]1 [GDP]
X-ray crystal structure, 2.0 Å: the crystal structure we obtained showed the presence of GDP•magnesium bound in the catalytic site
